According to patent US6544727B1, “Methods and devices for the removal of psoralens from blood products” (Cerus Corporation, priority 1995, dated 2003):

Assays:
[1] = test system: Salmonella tester strain TA102; assay: Ames test, strain TA102
Experimental: In this example the compounds of the present invention are tested for their dark mutagenicity using an Ames assay. The procedures used for the Salmonella mutagenicity test as described in detail by Maron and Ames were followed exactly. Maron, D. M. and B. N. Ames, Mutation Research 113: 173 ( 1983). A brief description for each procedure is given here. The tester strains TA97a, TA98, TA100, TA102, TA1537 and TA1538 were obtained from Dr. Ames. TA97a, TA98, TA1537 and TA1538 are frameshift tester strains. TA100 and TA102 are base-substitution tester strains. Upon receipt each strain was cultured under a variety of conditions to confirm the genotypes specific to the strains.
The first tests done with the strains were to determine the range of spontaneous reversion for each of the strains. With each mutagenicity experiment the spontaneous reversion of the tester strains to histidine independence was measured and expressed as the number of spontaneous revertants per plate. This served as the background controls.
For all experiments, the pre-incubation procedure was used. In this procedure one vial of each tester strain was thawed and 20 μL of this culture was added to 6 mL of Oxoid Nutrient Broth #2. This solution was allowed to shake for 10 hours at 37° C. In the pre-incubation procedure, 0.1 mL of this overnight culture was added to each of the required number of sterile test tubes. To half of the tubes 0.5 mL of a 10% S-9 solution containing Aroclor 1254 induced rat liver extract (Molecular Toxicology Inc., Annapolis, Md.), and MgCl2, KCl, glucose-6-phosphate, NADP, and sodium phosphate buffer (Sigma, St. Louis, Mo.) were added. To the other half of the tubes 0.5 mL of 0.2M sodium phospate buffer, pH 7.4, was used in place of the S-9 mixture (the—S9samples). Finally 0.1 mL of the test solution containing either 0, 0.1, 0.5, 1, 5, 10, 50, 100, 250, or 500 μg/mL of the test compound was added. The 0.7 mL mixture was vortexed and then pre-incubated while shaking for 20 minutes at 37° C. After shaking, 2 mL of molten top agar supplemented with histidine and biotin were added to the 0.7 mL mixture and immediately poured onto a minimal glucose agar plate (volume of base agar was 20 mL). The top agar was allowed 30 minutes to solidify and then the plates were inverted and incubated for 44 hours at 37° C. After incubation the number of revertant colonies on each plate were counted. […] (“n” represents the number of replicates performed for each data point.)

[2] = test system: DNA; conditions: Isaacs et al., NCI Monograph 66:21 (1984); cited from earlier work
[3] = test system: platelets; assay: Platelet aggregation (ADP and collagen), aggregometer; type: cell-based, human; conditions: 100 μM compound, 5 Joules/cm^2, 5 days storage; FIG. 21B
Experimental: To measure the effects of the present compounds and methods of decontamination on platelet function using these four indicators, four samples were prepared for each compound tested, two control samples and two containing compound. Three units of human platelets were obtained from the Sacramento Blood Center, Sacramento, Calif. These were each transferred under sterile conditions to 50 ml centrifuge tubes, then aliquots of each unit were transferred into a second set of 50 ml sterile centrifuge tubes. To each centrifuge tube containing platelet concentrate (PC), an aliquot of compound stock was added to reach a final concentration of 100 μM of compound. […] The samples were pipetted gently up and down to mix. Then aliquots (either 3 ml or 8 ml) of each sample was transferred to two sterile Teflon™ Medi-bags™ (American Fluoroseal Co., Silver Springs, Md.) (presently owned by The West Company, Lionville, Pa.). Samples were treated in one of two different sized bags, having either 3 ml or 8 ml capacity. […] For each compound tested, two control samples without compound were prepared by again removing aliquots of platelet concentrate (17 ml if using an 8 ml bag, 4 ml if using a 3 ml bag) from the same one of the first set of 50 ml centrifuge tubes from which the compound sample was drawn, and dividing into Medibags, as before. […]

[4] = test system: platelets; assay: S-59 uptake by platelets and effect of pre-incubation on adsorption kinetics (Example 23); type: in vitro ADME, human; conditions: FIG. 25A
Experimental: As discussed previously, S-59 uptake by platelets can occur over a period of several hours before saturation occurs. FIG. 25A graphically depicts S-59 (Co=50 μM) uptake by platelets over time (top) and S-59 release by platelets over time (bottom). As shown in the top graph, S-59 equilibrium is achieved at approximately two hours.
This example is directed to the question of whether partitioning of S-59 into platelets has a significant effect on adsorption kinetics. The adsorption kinetics of PC pre-incubated with S-59 for 24 hours prior to adsorption were compared to adsorption kinetics in PC without a pre-incubation period. […] Samples of PC were removed at various time points and analyzed for levels of residual S-59.

[5] = S-59 concentration by HPLC before and after illumination and RD treatment (Table Q); type: physicochemical
Experimental: Two ABO-matched single donor PCs containing 2−5×10^11 platelets in approximately 300 mL of 35% plasma and 65% PAS III were pooled and redivided into two identical units in PL 2410 Plastic containers (Baxter). One unit (the control) was immediately placed on a platelet shaker and stored at approximately 22° C. The other unit (the test) was treated with 150 μM S-59 and 3 Joules/cm^2 UVA. After treatment, the platelets suspension was transferred into a second PL 2410 Plastic container containing a RD. Contact between platelets and the RD occurred for a period of approximately 8 hours, then the platelet suspension was transferred to a new PL 2410 Plastic container for storage. The time of blood donation was defined as day 0. Treatment with S-59, UVA (320-400 nm), and the RD was performed on day 1. Six replicate experiments were carried out, each with a different pool of two ABO-matched single-donor platelet concentrates.
To evaluate the efficacy of the RD for reducing the concentration of S-59, platelet samples from the test unit were analyzed for S-59 content by HPLC. Samples before illumination, after 3 Joules/cm^2 of illumination, and immediately following the 8-hour RD treatment were analyzed.

Compound	revertant colonies per plate ([1]; TA102 + S9, 0.1 μg/plate)	revertant colonies per plate ([1]; TA102 + S9, 0.5 μg/plate)	revertant colonies per plate ([1]; TA102 + S9, 1 μg/plate)	revertant colonies per plate ([1]; TA102 + S9, 5 μg/plate)	revertant colonies per plate ([1]; TA102 − S9, 0.1 μg/plate)	revertant colonies per plate ([1]; TA102 − S9, 0.5 μg/plate)	revertant colonies per plate ([1]; TA102 − S9, 1 μg/plate)	revertant colonies per plate ([1]; TA102 − S9, 5 μg/plate)	DNA base pairs per AMT adduct (up to 1 adduct per) [2]	reduction in platelet aggregation from the day 1 control [3]	time to S-59 uptake equilibrium in platelets [4]	initial S-59 concentration in a platelet concentrate ([5]; 0 Joule/cm^2, HPLC)	μM S-59 ([5]; Post Treatment With An RD (8 Hours))	μM S-59 ([5]; Pre-Treatment (0 Joule/cm^2), platelet concentrate)	initial S-59 remaining unreacted ([5]; after 3 Joule/cm^2 of illumination)
Cc1oc2c(C)c3oc(=O)cc(C)c3cc2c1CN [AMT, 4′-Aminomethyl-4,5′,8-trimethylpsoralen, reference compound]	−20	5	−17	51	27	47	88	266	3.5 DNA base pairs						
Cc1oc2c(C)c3oc(=O)cc(C)c3cc2c1COCCN [Compound 2, 4′-(4-amino-2-oxa)butyl-4,5′,8-trimethylpsoralen]										approximately 8%	approximately two	approximately 145±10 μM	0.27 ± 0.05 µM	145 ± 10 µM	20.5%±2.3%
